In general, pIC50 refers to −log10 of the IC50, conventionally taken in molar units.

pIC50: −log10 of the molar value. Read-outs that look alike come from different tables or passages of the source.

Experiment [1] relates to leukotriene synthesis in homogenized rat basophil leukemia cells. As to the kind of experiment: cell free leukotriene biosynthesis system (homogenized rat basophil leukemia cells, radioimmunoassay). The experiment is classed as biochemical. Particulars: synthesis initiated by arachidonate; drug preincubated five minutes; read-out: IC50, leukotriene synthesis inhibition. Here is the method:
This test utilizes the cell free leukotriene biosynthesis system of M. Steinhoff et al. Biochim. Acta. 68, 28 (1980), incorporated herein by reference, which consists of homogenized rat basophil leukemia cells. Leukotriene synthesis is initiated by the addition of arachidonate. Solutions are centrifuged and supernatants assayed using a radioimmunoassay developed as described by Aeringhaus et al. FEBS Letter 146, 111-114. Drugs are dissolved in ethanol or dimethyl sulfoxide and then preincubated for five minutes. Phenidone is used as a positive control.

The subject of experiment [2] is bronchoconstriction in sensitized guinea pigs. As to the kind of experiment: antigen-induced bronchoconstriction in sensitized guinea pigs (frequency of notching). The experiment is classed as in vivo, guinea pig. As to conditions: Cavia porcellus, male Hartley guinea pigs pretreated with antihistamine, read-out: ED40, inhibition of bronchoconstriction. Here is the method: Preferably, bronchoconstriction in sensitized guinea pigs is measured upon antigen challenge. This test is described in broad terms by Piechuta, et al., Immunology, 38, 385 (1979) and more specifically by Hammerbeck and Swingle, Int. Archs. Allergy Appl. Immun. 74, 84-90 (1984), both references being incorporated herein by reference. It was used in a modified form as follows: Male Hartley guinea pigs (250-600 g) which were pretreated with an antihistamine, e.g., chlorpheniramine and then dosed intraperitoneally with a compound of the invention at a level of about 1 to 40 mg/kg 15 minutes prior to challenge or orally at the same dose 30 minutes prior to challenge were aerosol challenged with either water or ovalbumim at a concentration of 10 mg per ml. The animals were placed under an inverted dessicator jar (18×14 cm) with a constant flow of air coming into the chamber from a compressed-air source to prevent hypoxia. Air flow leaving the chamber and fluctuations due to respiration were monitored through a separate outlet with a Fleisch No. 0000 pneumotachograph (available from Beckman Instruments, Inc., Schiller Park, Ill.) coupled to a Beckman Type R dynograph (available from Beckman Instruments, Inc.). Aerosolization through a third outlet was made via a No. 4 DeVilbiss nebulizer (available from the DeVilbiss Company, Somerset, PA) for 90 seconds at 150 mm Hg. […]

As to `CC(C)(C)c1cc(C(=O)c2ccc(C(=O)O)s2)cc(C(C)(C)C)c1O` [5-(3',5'-di-t-butyl-4'-hydroxybenzoyl)thiophene-2-carboxylic acid], in experiment [1], the pIC50 was 4.82. In addition, the ED40 in experiment [2] (ip, 0.25 h, administered intraperitoneally 15 minutes prior to ovalbumin aerosol challenge) is less than 10 mg/kg; in experiment [2] (po, 0.5 h, administered orally 30 minutes prior to ovalbumin aerosol challenge) it was less than 25 mg/kg.

(Values after patent publication US4677113A, “Di-t-butylphenols substituted by a thenoyl group” (Riker Laboratories, Inc., priority 1986, dated 1987).)
